According to ChEMBL document CHEMBL4145628, “Strategy for Extending Half-life in Drug Design and Its Significance” (ACS Med Chem Lett, 2018):

Experiments:
[1] = Effective half life in rat; assay type: ADME, organism-based; details: in vivo, read-out: t1/2eff (converted)
[2] = Plasma clearance in rat; assay type: ADME, organism-based
[3] = Fraction unbound in rat plasma; assay type: ADME, cell-free
[4] = Bioavailability in rat; assay type: ADME, organism-based; details: in vivo

Compound	half-life [1]	clearance [2]	fraction unbound [3]	bioavailability [4]
CC1(Oc2ccc3[nH]nc(-c4cc(N5CCO[C@@H](CO)C5)ncn4)c3c2)CC1	29.4 min	78 mL/min/kg	0.051	36%
C[C@H]1CN(c2cc(-c3n[nH]c4ccc(OC5(C)CC5)cc34)ncn2)CCO1	31.2 min	69 mL/min/kg	0.019	32%
CC(C)Oc1cc2c(-c3cc(N4C[C@@H](C)O[C@@H](C)C4)ncn3)n[nH]c2cc1F	56.4 min	65 mL/min/kg	0.008	20%
CC(C)Oc1ccc2[nH]nc(-c3cc(N4C[C@@H](C)O[C@@H](C)C4)ncn3)c2c1	34.2 min	64 mL/min/kg	0.017	25%
